This assay concerns MDA-MB-468 breast. As to the kind of experiment: growth of human tumour cells (NCI), 48 h.

Several values for one entry are separate records, joined by “and”; a condition that tells them apart may be missing. Identical values can stand only once.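 Method: 48-hour compound exposure of cells in 96-well plates, five concentrations, linear interpolation of endpoints. GI50 marks 50% less growth. At the TGI there is no net growth.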 *1 amine or outer side, *2 acyl side, *3 side chain or, on linkers, in order; H or OH if unused. Where a SMILES comes first, the peptide text is derived from it. [ ]: non-standard residue; d: D form. The star is where a group is joined. X11 = C/C=C/CC(C)C(O)[C@H](N[*:1])C(=O)[*:2]; Decanoyl = CCCCCCCCCC(=O)*; Leu(ol) = CC(C)C[C@H](N)CO; Iva = CC[C@](C)(N)C(=O)O; Aib = CC(C)(N)C(=O)O

For the compound `CS(=O)(=O)Nc1cccc(-c2ccc3ncnc(Nc4ccc(F)c(Cl)c4)c3c2)c1`, the GI50 was 108 nM and the TGI amounted to 860 nM.

On to `CNCCCNc1nc2ccccc2c2c(=O)c3cc(OC)ccc3sc12`, for which the GI50 was 1760 nM and the TGI was 3470 nM.

For `CNCCN(C)c1ccc(Nc2cc(NC3CC3)n3ncc(C#N)c3n2)cc1NC(C)=O`, the GI50 was less than 10.6 nM and the TGI was 62.6 nM.

On to `COC(=O)N1CCN(CCNCc2ccc(NC(=O)c3ccc(C)c(C#Cc4cnc5cccnn45)c3)cc2C(F)(F)F)CC1`, for which the GI50 is 1580 nM and the TGI amounted to 3200 nM.

As for `Cc1cc(C)c(C#N)c(Sc2nc(C)c([N+](=O)[O-])c(C)c2C#N)n1`, the GI50 is 1650 nM and the TGI was determined as 3770 nM.

For `N#CC1=C(N)Oc2c(ccc3ccccc23)C1c1cc(=O)oc2ccc(Cl)cc12` (stereo not drawn), the GI50 was 520 nM and the TGI was 33000 nM.

For `c1ccc(OCCC[P+](c2ccccc2)(c2ccccc2)c2ccccc2)cc1`, the GI50 is 230 nM and the TGI worked out at 1490 nM.

For the compound `COc1cc(C2C3=C(COC3=O)N(CCO)c3cc4c(cc32)OCCO4)cc(OC)c1OC` (stereo not drawn), the GI50 is 106 nM and the TGI came to 319 nM.

On to `COc1ccccc1S(=O)(=O)Nc1ccc2c3c(cc(CCC(=O)NCCCCNc4cccc5c4C(=O)N(C4CCC(=O)NC4=O)C5=O)cc13)C(=O)N2C` (stereo not drawn), for which the GI50 is 21.7 nM and the TGI is 87.2 nM.

On to `Cn1cc(C2=C(c3c[nH]c4ccccc34)C(=O)NC2=O)c2ccccc21`, for which the GI50 was 470 nM and the TGI was greater than 25000 nM.

In the case of `COc1ccc(-c2cc3c(C)nc(N)nc3n(C3CCC(OCCO)CC3)c2=O)cn1` (stereo not drawn), the GI50 is 41.7 nM and 32.3 nM; the TGI was 270 nM and 256 nM.

For the compound `C#Cc1cccc(Nc2nc(Cl)nc3cc(NC(=O)CCl)ccc23)c1`, the GI50 was 500 nM and the TGI amounted to 1170 nM.

As to `COc1ccc(C(=O)/C=C/c2cc(-c3cc(OC)c(OC)c(OC)c3)n[nH]2)cc1`, the GI50 was 1290 nM and the TGI stood at 2650 nM.

Consider `CC(C)N(Cc1ccc(CN(C(=O)CCl)C(C)C)cc1)C(=O)CCl`, for which the GI50 was 1740 nM and the TGI turned out to be 3940 nM.

`C/C=C/CC(C)C(O)[C@H](NC(=O)[C@@H]1CCCN1C(=O)[C@](C)(CC)NC(=O)CCCCCCCCC)C(=O)N[C@@](C)(CC)C(=O)N[C@@H](CCC(N)=O)C(=O)N[C@H](CCC(N)=O)C(=O)NC(C)(C)C(=O)NC(C)(C)C(=O)N[C@@H](CCC(N)=O)C(=O)N[C@H](CC(C)C)C(=O)N[C@H](CO)CC(C)C` (stereo partly drawn) (Decanoyl-[Iva]P[X11][Iva]Q[dQ][Aib][Aib]Q[dL][Leu(ol)]): the GI50 is 1780 nM and the TGI amounted to 3380 nM.

Consider `COc1cccc2cc(N(C)c3nc(C)nc4c3CCC4)ccc12`, for which the GI50 was less than 10 nM and the TGI amounted to 20500 nM.

With `CN=C1C=CC(=C(c2ccc(N(C)C)cc2)c2ccc(N(C)C)cc2)C=C1`, the GI50 was 178 nM and the TGI came to 539 nM.

Turning to `COc1cc(OC)cc(C2C3=C(COC3=O)Nc3cc(OC)ccc32)c1` (stereo not drawn), the GI50 is less than 10 nM and the TGI is less than 12.2 nM.

As to `O=C1CSC(c2ccccc2Cl)N1c1nnc(Cn2cnnc2)o1` (stereo not drawn), the GI50 was 3850 nM and the TGI was 17200 nM.

As to `CCCCCCSSC(=S)N(CC)CC`, the GI50 is 29900 nM and the TGI was greater than 100000 nM.

Regarding `COc1ccc(-c2nc(-c3nc4ccc(C)cc4[nH]3)cc3c2[nH]c2ccccc23)cc1`, the GI50 is 2690 nM and the TGI worked out at 25000 nM.

For the compound `CN(C)CCCn1c(=O)c2ccccc2c2cnc3[nH]ccc3c21`, the GI50 is 493 nM and the TGI came to 2530 nM.

Consider `C#C[C@@]1(O)[C@@H](CO)O[C@@H](n2cc(I)c3c(N)ncnc32)[C@@H]1O`, for which the GI50 was 153 nM and the TGI was 561 nM.

Consider `CC(=O)N1CCN(CCNC(=O)n2cc(-c3ccncc3)c(-c3cc(O)cc(Cl)c3)n2)CC1`, for which the GI50 was 4590 nM and the TGI came out at 20800 nM.

Values taken from PubChem BioAssay (NCI).
